The values that follow come from patent US20060079453A1, “Hla binding peptides and their uses” (priority 2002, published 2006).

Experiment in all cases: biochemical
Format in all cases: binding

Assay [1] has as its target HLA-DR DRB1*0301 (DR3) (Homo sapiens, UniProt P01903+P01911, A100K/A102G/A103R/A169T/F55Y/I96L/K41T/L162R/M171V/P40S/Q125H/Q178H/Q39Y/R42S/S66N/T106N/T262R/W38E/Y61H).
The target of assay [2] is HLA-DR DRB1*0401 (DR4) (Homo sapiens, UniProt P01903+P01911, A100K/A169T/F76Y/I96L/K127E/L162R/M171V/N62H/P40V/Q125Y/R42H/S133A/S149N/S66Y/V115G/V209L/W38E).
In assay [3] the target is HLA-DR DRB1*0405 (DR4) (Homo sapiens, UniProt P01903+P01911, A100R/A169T/D86S/F76Y/I96L/K127E/L162R/M171V/N62H/P40V/Q125Y/R42H/S133A/S149N/S66Y/V115G/V209L/W38E).
For assay [4], the target named is HLA-DR DRB1*0701 (DR7) (Homo sapiens, UniProt P01903+P01911, A100R/A102G/A103Q/D57E/D86V/E43K/F76Y/K127E/L162R/M171V/P40G/Q125H/Q99D/R33Q/R42Y/R54Q/S133A/S66F/T210M/V115G/Y107V/Y59L/Y89S).
Assay [5] has as its target HLA-DR DRB1*0802 (DR8) (Homo sapiens, UniProt P01903+P01911, A100R/A103L/A169T/F76Y/H45Y/I96F/K41T/L162R/M171V/P40S/Q125H/Q178H/Q39Y/Q99D/R218S/R42G/S66Y/V115G/W38E).
The target in assay [6] is HLA-DR DRB1*0901 (DR9) (Homo sapiens, UniProt P01903+P01911, A100R/A103E/D57H/D86V/F55Y/F60I/F76Y/I96F/K127E/L162R/M171V/P40D/Q125H/Q99R/R33Q/R42F/S133A/S66N/T210M/V115G/W38K/Y107V/Y59G/Y89S).
In assay [7] the target is HLA-DR DRB1*1101 (DR11) (Homo sapiens, UniProt P01903+P01911, A100R/A169T/A87E/I96F/K41T/L162R/M171V/P40S/Q125H/Q178H/Q39Y/Q99D/R42S/S66Y/T262R/V115G/W38E).
Chain of HLA-DR DRB1*1101 (DR11) (P01903 26-254 limits assumed, other chains not shown): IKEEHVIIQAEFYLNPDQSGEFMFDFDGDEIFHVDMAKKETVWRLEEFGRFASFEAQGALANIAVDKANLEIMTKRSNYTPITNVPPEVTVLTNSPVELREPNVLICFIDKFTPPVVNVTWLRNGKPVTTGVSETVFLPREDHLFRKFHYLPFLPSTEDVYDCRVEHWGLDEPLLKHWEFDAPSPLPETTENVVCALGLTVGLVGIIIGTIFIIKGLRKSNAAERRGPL
Assay [8] deals with HLA-DR DRB1*1302 (DR13) (Homo sapiens, UniProt P01903+P01911, A100E/A169T/K41T/L162R/M171V/P40S/Q125H/Q178H/Q39Y/Q99D/R42S/S66N/T262R/V115G/W38E/Y61H).
Chain of HLA-DR DRB1*1302 (DR13) (P01903 26-254 limits assumed, other chains not shown): as above
The target of assay [9] is HLA-DR DRB1*1501 (DR15) (Homo sapiens, UniProt P01903+P01911).
Assay [10] has as its target HLA-DR DRB4*0101 (DR53) (Homo sapiens, UniProt P01903+P13762, G164S).
Assay [11] addresses HLA-DR DRB5*0101 (DR51) (Homo sapiens, UniProt P01903+Q30154).
Assay [12] has as its target HLA-DR DRB1*0101 (DR1) (Homo sapiens, UniProt P01903+P01911, A100R/D57E/F55L/F60I/F76Y/I96L/L162R/M171V/P40L/Q125E/R42F/V115G/Y59C).

Like-named read-outs stand apart in the source and are kept apart here. No end group written: not given here.

Chain of HLA-DR DRB1*0301 (DR3) (P01903 26-254 limits assumed, other chains not shown): as above

Take FPDWQNYTPGPGTRF: the IC50 in [1] was greater than 224 µM; in assay [2] (DRB1 *0401) it was 23400 nM; in assay [3] (DRB1 *0405) it was greater than 10.1 µM; in assay [4] (DRB1 *0701), 59.6 µM; in [5], 592 nM; in [6] (DRB1 *0901), 3.01 µM. Besides, the IC50 was greater than 51300 nM in [7] (DRB1 *1101); greater than 12000 nM in assay [8] (DRBI *1302); 35100 nM in assay [9] (DRBI *1501); 33900 nM in assay [10] (DRB4 *0101); greater than 20500 nM in [11] (DRB5 *0101).

For VNFYAWKRMEVGQQA, the IC50 in assay [12] (DRB1 *0101) was found to be 193 nM; in assay [1], 2.87 µM; in [2] (DRB1 *0401) it was 10 nM; in assay [3] (DRB1 *0405), 0.015 µM; in [4] (DRB1 *0701) it was 40.2 µM; in assay [5], 35 nM. The IC50 in assay [6] (DRB1 *0901) stood at 1.24 µM; in assay [7] (DRB1 *1101), 50 nM; in [8] (DRBI *1302), 14800 nM; in assay [10] (DRB4 *0101), 1490 nM.

For the molecule YLVTGERGFFYTKYT, the IC50 in [12] (read-out: DRB1 *0101) is 1150 nM; in [1] (read-out: DRB1 *0301), 4.8 µM; in assay [2] (read-out: DRB1 *0401) it was greater than 20500 nM; in [3] (read-out: DRB1 *0405), greater than 30.1 µM; in assay [4] (read-out: DRB1 *0701), 0.078 µM; in assay [5] (read-out: DRB1 *0802) it was 4300 nM. The IC50 in assay [6] (read-out: DRB1 *0901) is 195 µM.

With FLRIVQTRSVEGSTGF, the IC50 in [12] (DRB1 *0101) turned out to be 6.4 nM; in assay [1] it was 3.94 µM; in [2] (DRB1 *0401), 11 nM; in [3] (DRB1 *0405), 0.099 µM; in assay [4] (DRB1 *0701), 0.0098 µM; in assay [5] it was 445 nM. Further, the IC50 in assay [6] (DRB1 *0901) stood at 0.778 µM; in [8] (DRBI *1302), 1.5 nM; in assay [9] (DRBI *1501), 9.8 nM.

As for `CC[C@H](C)[C@H](NC(=O)[C@H](CCCCN)NC(=O)[C@H](CC(N)=O)NC(=O)[C@@H](NC(=O)[C@@H](NC(=O)[C@H](CC(C)C)NC(=O)[C@@H](NC(=O)[C@H](CO)NC(=O)[C@H](CC(C)C)NC(=O)[C@H](C)NC(=O)[C@H](CCC(=O)O)NC(=O)CN)[C@@H](C)O)C(C)C)C(C)C)C(=O)N[C@@H](CCCNC(=N)N)C(=O)NCC(=O)N[C@H](C(=O)O)[C@@H](C)O`, the IC50 is 29.7 µM in assay [1]; 30.1 µM in assay [3]; 383 nM in assay [5]; 40.8 µM in [6]; 977 nM in assay [7]; 55 nM in assay [8]. Also, the IC50 in assay [10] was found to be 1510 nM; in [11] (DRB5 *0101), 108 nM.

For `CC[C@H](C)[C@H](N)C(=O)N[C@@H](C)C(=O)NCC(=O)N[C@@H](CC(C)C)C(=O)N[C@@H](Cc1ccccc1)C(=O)N[C@@H](CC(C)C)C(=O)N[C@H](C(=O)N[C@H](C(=O)N[C@@H](CCC(=O)O)C(=O)N[C@@H](C)C(=O)N[C@H](C(=O)N[C@H](C(=O)N[C@@H](C)C(=O)N[C@@H](CC(=O)O)C(=O)N[C@@H](CCCCN)C(=O)O)C(C)C)C(C)C)[C@@H](C)O)[C@@H](C)O`, the IC50 was determined as 6.8 nM in assay [12]; 13 nM in [2]; 0.067 µM in [3]; 0.23 µM in assay [4]; 3890 nM in assay [5]; 0.409 µM in [6]. Further, the IC50 in [7] is 867 nM; in [8] it was greater than 10300 nM; in [9] it was greater than 50800 nM; in [10], greater than 26400 nM.

As to ALSTLVLNRLKVGLQ, the IC50 in assay [12] (DRB1 *0101) came to 49 nM; in assay [2] (DRB1 *0401), 517 nM; in assay [3] (DRB1 *0405), 2.17 µM; in assay [4] (DRB1 *0701), 0.647 µM; in assay [5] it was 4 nM; in assay [6] (DRB1 *0901) it was 2.17 µM. The IC50 amounted to 9.1 nM in [7] (DRB1 *1101); 4.6 nM in assay [8] (DRBI *1302); 191 nM in assay [9] (DRBI *1501); 17 nM in [10] (DRB4 *0101); 3.9 nM in assay [11] (DRB5 *0101).

With `CC[C@H](C)[C@H](NC(=O)[C@H](CCCCN)NC(=O)[C@H](CC(N)=O)NC(=O)[C@@H](NC(=O)[C@@H](NC(=O)[C@H](CC(C)C)NC(=O)[C@@H](NC(=O)[C@H](CO)NC(=O)[C@H](CC(C)C)NC(=O)[C@H](C)N)[C@@H](C)O)C(C)C)C(C)C)C(=O)N[C@@H](CCCNC(=N)N)C(=O)NCC(=O)N[C@H](C(=O)N[C@@H](Cc1ccccc1)C(=O)N[C@@H](CCCCN)C(=O)O)[C@@H](C)O`, the IC50 in [12] came out at 75 nM; in assay [1], 0.274 µM; in assay [2], 648 nM; in assay [3], 3.63 µM; in assay [4], 0.396 µM; in [5] it was 20 nM. The same molecule yielded an IC50 in assay [6] of 18 µM.

As to CCTSICSLYQLENY, the IC50 in assay [1] (read-out: DRB1 *0301) was 71.2 µM; in assay [2] (read-out: DRB1 *0401), 8380 nM; in assay [3] (read-out: DRB1 *0405) it was 0.629 µM; in assay [4] (read-out: DRB1 *0701), 35.6 µM; in assay [5] (read-out: DRB1 *0802), greater than 54400 nM; in assay [6] (read-out: DRB1 *0901) it was 29.8 µM.

For the molecule QLCFLKKGLGISYGR, the IC50 came out at 158 µM in assay [1]; 4440 nM in assay [2]; 0.443 µM in assay [3]; 3.63 µM in assay [4]; 40 nM in assay [5]; 0.2 µM in assay [6]. Besides, the IC50 stood at 9.5 nM in assay [7] and 88 nM in [8].

Consider `CC(C)C[C@H](N)C(=O)N[C@@H](CCC(=O)O)C(=O)N1CCC[C@H]1C(=O)N[C@@H](Cc1c[nH]c2ccccc12)C(=O)N[C@@H](CC(N)=O)C(=O)N[C@@H](Cc1c[nH]cn1)C(=O)N1CCC[C@H]1C(=O)NCC(=O)N[C@@H](CO)C(=O)N[C@@H](CCC(N)=O)C(=O)N1CCC[C@H]1C(=O)N[C@@H](CCCCN)C(=O)N[C@H](C(=O)N[C@@H](C)C(=O)N[C@@H](CS)C(=O)N[C@H](C(=O)O)[C@@H](C)O)[C@@H](C)O`, for which the IC50 in assay [12] is greater than 33600 nM; in assay [1] it was greater than 328 µM; in [2] it was greater than 33300 nM; in assay [3] it was greater than 8.23 µM; in [4], greater than 72.3 µM; in assay [5], 69200 nM. In addition, the IC50 in assay [6] is 34.5 µM; in assay [7] it was greater than 15300 nM; in assay [8], greater than 11000 nM; in [10] it was 92 nM; in assay [11], 2940 nM.

With VASLLTTAEVVVTE, the IC50 in assay [1] (read-out: DRB1 *0301) was 136 µM; in [2] (read-out: DRB1 *0401) it was 7430 nM; in assay [3] (read-out: DRB1 *0405), 6.52 µM; in assay [4] (read-out: DRB1 *0701) it was 0.369 µM; in [5] (read-out: DRB1 *0802), greater than 118000 nM; in [6] (read-out: DRB1 *0901), 1.96 µM.

In the case of AYVLLSEKKISSIQS, the IC50 in assay [12] (DRB1 *0101) amounted to 78 nM; in [2] (DRB1 *0401) it was 943 nM; in assay [3] (DRB1 *0405), 9.47 µM; in assay [4] (DRB1 *0701), 3.85 µM; in [5] it was 27 nM; in assay [6] (DRB1 *0901), 3.34 µM. In addition, the IC50 in [7] (DRB1 *1101) was found to be 51 nM; in assay [8] (DRBI *1302), 816 nM; in assay [9] (DRBI *1501), 489 nM; in assay [10] (DRB4 *0101) it was 902 nM; in assay [11] (DRB5 *0101) it was 4520 nM.

Regarding DFSYLQDSDPDSFQD, the IC50 in assay [2] (DRB1 *0401) is 264 nM; in [3] (DRB1 *0405), greater than 127 µM; in assay [4] (DRB1 *0701), greater than 250 µM; in [5], greater than 61200 nM; in assay [6] (DRB1 *0901), greater than 107 µM; in assay [8] (DRBI *1302) it was greater than 35000 nM. Also, the IC50 was greater than 91000 nM in assay [9] (DRBI *1501) and greater than 40000 nM in assay [11] (DRB5 *0101).

For the molecule TLERPKTLSPQKNGV, the IC50 is 134 µM in [1] (read-out: DRB1 *0301); greater than 22500 nM in assay [2] (read-out: DRB1 *0401); greater than 28.6 µM in assay [3] (read-out: DRB1 *0405); 26 µM in assay [4] (read-out: DRB1 *0701); greater than 75400 nM in assay [5] (read-out: DRB1 *0802); greater than 300 µM in assay [6] (read-out: DRB1 *0901).
